# What was measured:
# AR = molecular target: T1, AR (Homo sapiens, UniProt P10275); settings: cited from earlier work
# T1 sequence (P10275 1-920): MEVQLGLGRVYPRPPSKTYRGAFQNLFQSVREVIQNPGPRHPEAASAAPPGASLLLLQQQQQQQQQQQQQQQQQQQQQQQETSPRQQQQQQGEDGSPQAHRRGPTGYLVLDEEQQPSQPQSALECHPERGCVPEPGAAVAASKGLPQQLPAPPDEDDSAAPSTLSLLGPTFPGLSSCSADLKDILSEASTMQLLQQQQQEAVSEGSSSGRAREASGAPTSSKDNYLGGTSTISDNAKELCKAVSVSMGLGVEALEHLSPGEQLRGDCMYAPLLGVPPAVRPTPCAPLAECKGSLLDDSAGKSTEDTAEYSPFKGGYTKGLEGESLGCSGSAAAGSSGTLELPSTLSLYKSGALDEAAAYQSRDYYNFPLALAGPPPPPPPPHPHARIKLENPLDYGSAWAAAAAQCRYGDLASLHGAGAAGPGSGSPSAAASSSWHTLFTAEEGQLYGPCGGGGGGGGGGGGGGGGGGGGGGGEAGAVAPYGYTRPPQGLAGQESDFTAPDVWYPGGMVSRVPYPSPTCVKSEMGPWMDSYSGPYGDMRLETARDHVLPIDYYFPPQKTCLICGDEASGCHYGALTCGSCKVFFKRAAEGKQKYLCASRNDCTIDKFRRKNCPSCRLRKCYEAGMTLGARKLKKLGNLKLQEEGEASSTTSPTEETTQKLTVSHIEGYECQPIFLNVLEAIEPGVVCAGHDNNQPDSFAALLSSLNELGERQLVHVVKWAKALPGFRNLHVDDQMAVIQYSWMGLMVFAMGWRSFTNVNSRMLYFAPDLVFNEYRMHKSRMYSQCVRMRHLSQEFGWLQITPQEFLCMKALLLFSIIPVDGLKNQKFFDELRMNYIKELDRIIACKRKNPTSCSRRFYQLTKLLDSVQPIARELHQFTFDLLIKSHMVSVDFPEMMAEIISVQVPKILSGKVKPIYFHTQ
# HCI-7 PDX = assay: HCI-7 (HCI-007) patient-derived xenograft in NSG mice; type: in vivo
# Method: HCI-007 tumor pieces (1 mm^3) were implanted surgically (one per mouse) under the skin on the flanks of NSG mice. Simultaneously, 17β-estradiol pellet (Innovative Research of America) was implanted surgically under the skin of each mouse. Tumors were allowed to grow and reach approximately 100 mm^3 volume (1*W*W*0.526). […] Tumor volume was measured weekly and represented as % change in tumor volume (FIG. 32). Mice were sacrificed and tumors stored for further analysis.
# (§1) All animal protocols were approved by The University of Tennessee Health Science Center (UTHSC) Institutional Animal Care and Use Research Committee. Xenograft experiments were performed as previously published (Narayanan et al. (2014) PLoS One 9, e103202). Briefly, 3 million MCF-7 cells were suspended in 0.05 ml MEM+10% FBS and 0.05 ml Matrigel/nude mouse and were injected subcutaneously. Once the tumor size reached 100-200 mm^3, the animals were randomized and treated orally with the indicated drugs formulated in DMSO:PEG-300 (15:85). HCI-7, HCI-9, and HCI-13 PDXs were gifts kindly donated by Dr. Alana Welm (Huntsman Cancer Institute, Salt Lake City, Utah). HCI PDX tumor fragments (1 mm^3) were surgically implanted under the mammary fat pad in female NOD SCID Gamma (NSG) mice. Tumor volume was measured twice weekly for MCF-7 xenograft and once or twice weekly for HCI PDXs. At the end of the study, animals were sacrificed and tumors were excised, weighed, and stored for various analyses.
# From the several PDXs available, three AR-positive PDXs were identified, based on gene expression profile. […] The enzalutamide dose was selected based on previous published experiments (Park et al. (2016) Cancer Invest 34, 517-520; Pollock et al. (2016) Nat Chem Biol 12, 795-801) as well as from internal experiments conducted in prostate cancer xenografts and in Hershberger studies.
# HCI-13 PDX = assay: HCI-13 (HCI-013) patient-derived xenograft in NSG mice; type: in vivo; settings: 10 mpk p.o.
# Method: HCI-013 tumor pieces (1 mm^3) were implanted surgically (one per mouse) under the skin on the flanks of NSG mice. Tumors were allowed to grow and reach approximately 100 mm^3 volume (1*W*W*0.526). […] Tumor volume was measured weekly and represented as % change in tumor volume. Mice were sacrificed, tumors weighed, and stored for further analysis.
# as §1
# MDA-MB-231-AR tumors = assay: Affymetrix microarray of MDA-MB-231-AR tumors; type: in vivo, mice
# Method: RNA was extracted from MDA-MB-231-AR tumors (n=5/group) treated with vehicle or compound of Formula VIII. RNA was pooled and Affymetrix microarray was performed to determine the change in expression of gene signature.
# Microarray Analysis was performed on RNA from MDA-MB-231-AR and MCF-7-AR tumors in order to identify and compare changes in gene expression in ER-negative (MDA-MB-231-AR; triple negative) an ER-positive (MCF-7-AR; triple positive) breast cancer tumors treated with a compound of Formula VIII (30 mg/kg/day p.o. for 4 weeks). Affymetrix analysis of the xenografts was done on pooled samples of the xenografts. The analysis included ˜70,000 sequences with ˜30,000 genes and variations thereof represented, as well as microRNA's. RNA was isolated and expression of genes was evaluated using microarray (Affymetrix Human Gene ST 2.0 array). Expression of genes in compound of Formula VIII-treated samples was compared with the expression in vehicle-treated samples.
smiles,measurement,setting,value
"C[C@](O)(COc1ccc(C#N)cc1)C(=O)Nc1ccc(C#N)c(C(F)(F)F)c1 [Formula IX, (S)—N-(4-Cyano-3-(trifluoromethyl)phenyl)-3-(4-cyanophenoxy)-2-hydroxy-2-methylpropanamide]",concentration at which it binds to and activates the AR,AR,less than 10 nM
same,tumor growth,"HCI-7 PDX; 10 mg/kg Formula IX, 30 mg/kg enzalutamide, orally",inhibited significantly
same,tumor weights at end of study,HCI-7 PDX; 10 mg/kg orally,significantly smaller
same,tumor growth (% change in tumor volume),"HCI-7 PDX; Formula IX 10 mg/kg, enzalutamide 20 mg/kg, orally, vs vehicle",grew slowly
same,tumor weight at sacrifice,HCI-13 PDX,almost complete inhibition of tumor
"C[C@](O)(COc1ccc(C#N)cc1)C(=O)Nc1ccc(C#N)c(Cl)c1 [Formula VIII, (S)—N-(3-chloro-4-cyanophenyl)-3-(4-cyanophenoxy)-2-hydroxy-2-methylpropanamide]",Aurora kinase expression,MDA-MB-231-AR tumors; Table 8,Decreased
same,BUB1 S/T kinase expression,MDA-MB-231-AR tumors; Table 8,Decreased
same,CENPE expression,MDA-MB-231-AR tumors; Table 8,Decreased
same,EHMT2 expression,MDA-MB-231-AR tumors; Table 8,Decreased
same,ERCC1 expression,MDA-MB-231-AR tumors; Table 8,Decreased
same,IGFBP3 expression,MDA-MB-231-AR tumors; Table 8,Decreased
same,ITGA2 expression,MDA-MB-231-AR tumors; Table 8,Decreased
same,NQO1 expression,MDA-MB-231-AR tumors; Table 8,Increased
same,PARP1 expression,MDA-MB-231-AR tumors; Table 8,Decreased
same,POLD1 expression,MDA-MB-231-AR tumors; Table 8,Decreased
same,PTPRJ expression,MDA-MB-231-AR tumors; Table 8,Increased
same,β-Adrenoceptor2 expression,MDA-MB-231-AR tumors; Table 8,Decreased
same,FKBP51 induction,MDA-MB-231-AR tumors; Table 10,∞
same,IRS2 induction,MDA-MB-231-AR tumors; Table 10,4.40 Fold
same,MUC1 induction,MDA-MB-231-AR tumors; Table 10,9 Fold
same,PTGS2 induction,MDA-MB-231-AR tumors; Table 10,14 Fold
same,SNAI2/SLUG induction,MDA-MB-231-AR tumors; Table 10,2.10 Fold
same,genes Up,MDA-MB-231-AR tumors; more than 2 fold vs vehicle,720
